Assay results reported in paper PMC7935113, “Development and in vivo evaluation of intranasal formulations of parathyroid hormone (1-34)” (Drug Delivery, 2021).
Like-named read-outs stand apart in the source and are kept apart here. Each block holds one compound with its values, some of them ahead of it.

Experiments:
[1] = test system: Human nasal epithelial cells (HNEpCs); conditions: MTT, n = 8
Method: Human nasal epithelial cells (HNEpCs) purchased from the American Type Culture Collection (Rockville, MD, USA) were used as an in vitro model of the nasal mucosa. The cells were cultured in culture medium (Eagle’s minimum essential medium (MEM) supplemented with 10% (v/v) fetal bovine serum (FBS) and 1% penicillin/streptomycin solution) and maintained in 5% CO2/95% humidified air at 37 °C.
HNEpCs were seeded at a density of 5 × 10^3 cells/well in 96-well plates (Corning, NY, USA) and cultured for 24 h before the experiment. […] The culture medium was used as a negative control, and 20% dimethyl sulfoxide (DMSO) was used as a positive control. Following 6 h of incubation, the test solutions were removed, and the cytotoxicity was determined using a commercial MTT kit. The cells were washed, and then, MTT reagent in culture medium was added for a further 3 h incubation at 37 °C. The remaining media was removed, and 200 μL DMSO was added to each well to dissolve the formazan crystals. The resulting absorbance was read at 490 nm.

HNEpC layers = experiment: Permeability of FITC-PTH across HNEpC layers (Transwell); type: in vitro ADME, human; conditions: HNEpC monolayer, apical to basolateral, 10 μg/mL FITC-PTH, all tested concentrations (0.015%, 0.010% and 0.005%), fluorescence
Method: […] were seeded at a density of 10 × 10^4 cells/well on Transwell® supports with a pore size of 0.4 μm. TEER (Ω·cm^2) was determined using a Millicell electrical resistance system (ERS) voltohmmeter (Millipore, Bedford, MA, USA). Cell monolayers with TEER values exceeding 500 Ω·cm^2 were used for further experiments. […] Prior to the permeability experiment, the cell monolayers were equilibrated with 1.0 mL Hank's balanced salt solution (HBSS) in the basolateral compartment and 0.4 mL culture medium in the apical chamber for 30 min. Subsequently, the apical culture medium was withdrawn, and 0.2 mL solution of a test solution was applied. Thereafter, 200 μL receiver samples from the basolateral compartment were taken every 30 min for 4 h, and then, 200 μL fresh HBSS was added to the basolateral compartment.

HNEpC monolayers = experiment: Effect of permeation enhancers on TEER of HNEpC monolayers; type: cell-based, human; conditions: HNEpC monolayer, apical application, all solutions (0.005%, 0.010%, 0.015%), n = 8
Method: HNEpCs were seeded at a density of 10 × 10^4 cells/well on Transwell® supports with a pore size of 0.4 μm. TEER (Ω·cm^2) was determined using a Millicell electrical resistance system (ERS) voltohmmeter (Millipore, Bedford, MA, USA). Cell monolayers with TEER values exceeding 500 Ω·cm^2 were used for further experiments. […] Prior to the permeability experiment, the cell monolayers were equilibrated with 1.0 mL Hank’s balanced salt solution (HBSS) in the basolateral compartment and 0.4 mL culture medium in the apical chamber for 30 min. Subsequently, the apical culture medium was withdrawn, and 0.2 mL solution of a test solution was applied. Thereafter, 200 μL receiver samples from the basolateral compartment were taken every 30 min for 4 h, and then, 200 μL fresh HBSS was added to the basolateral compartment. Finally, the FITC-PTH concentration in the collected samples was analyzed using a Varioskan LUX multimode microplate reader with ex/em 485/518 nm.
HNEpC monolayers were cultured as described above. The baseline TEER was measured before the experiment for 60 min. […] A chitosan solution at 0.003% w/v in culture medium was used as a positive control. The results for each experiment are presented as percentages relative to their respective baseline TEER.

HNEpCs = experiment: Cellular internalization of FITC-PTH; type: cell-based, human
Method: A 20 μg/mL FITC-PTH solution without any permeation enhancer was used as a negative control, and a 20 μg/mL FITC-PTH solution supplemented with 0.1% Triton X-100 was used as a positive control. The test solutions were added to the corresponding wells, and the amount of cellularly internalized PTH was measured after 30 min following sample applications. […] Finally, the cells were lysed with cell lysis buffer. The resulting lysis products were collected for fluorescence measurement and protein content measurement. The fluorescence measurement was carried out using a Varioskan LUX multimode microplate reader with ex/em 485/518 nm, and the protein content was measured by using a commercial BCA protein assay kit (Solarbio Life Sciences). The amount of internalized PTH(1-34) in each well was normalized to the protein content.

nasal septum mucosae [2] = experiment: Nasal mucosal toxicity: mucosa morphology (SEM) after intranasal dosing; conditions: SD rats, citric acid solutions (0.2-0.6%), 15 consecutive days
Method: (§1) Mucosa morphology was considered a direct indicator of nasal mucosal toxicity. […] This mucosa morphology study was performed in vivo using healthy male SD rats. The rats were lightly anesthetized with diethyl ether and intranasally administered test solutions. Generally, 0.1 mL of the corresponding solution was equally administered to the two nostrils of one rat for 15 consecutive days. Finally, 2 days after stopping intranasal administration, the rats were sacrificed by an intraperitoneal injection of urethane and their hearts were perfused with saline. The nasal septum mucosae were then carefully peeled off, fixed with 3% w/v glutaraldehyde (diluted by PBS), and dehydrated with a gradient of ethanol. Finally, the fixed nasal mucosae were dried at the CO2 critical point, sprayed with ion sputtering, and observed under SEM.

nasal septum mucosae [3] = conditions: rat, in vivo
Method: as §1

[4] = cited from earlier work
[5] = Chemical stability of PTH(1-34) in aqueous buffer solutions at 40 °C (HPLC); type: physicochemical
Method: HPLC measurements were performed with an HPLC instrument equipped with a photodiode array detector. A C-18 column (Cosmosil 250 × 4.6 mm, 5 µm, Japan) was used, and the sample solutions were applied via an autosampler (Merck-Hitachi, Darmstadt, Germany). Analysis of PTH(1-34) and its degradation products was performed under the following conditions. Mobile phase A was 0.1% (v/v) TFA in acetonitrile, and mobile phase B was 0.1% TFA (v/v) in water. […] A detection wavelength of 214 nm and column temperature of 25 °C were used.
Stability studies were carried out to clarify the influence of aqueous solvent on the stability of PTH(1-34) during storage and to determine the optimal aqueous environment. First, PBS and ABS were prepared as solvent solutions: 0.063 M PBS was prepared by dissolving 3.73 g sodium dihydrogen phosphate and 36.55 g disodium hydrogen phosphate in 1000 mL Milli-Q water; 0.032 M ABS was prepared as by dissolving 0.664 g glacial acetic acid and 1.64 g sodium acetate trihydrate together in 1000 mL Milli-Q water. Then, 0.016 M ABS, 0.008 M ABS, and 0.004 M ABS were prepared by diluting 0.032 M ABS with Milli-Q water. Following preparation, the pH values of the PBS and ABS solutions were measured using a pH meter (Mettler Toledo FiveEasy Plus).
To examine the stability of peptides in each aqueous medium, 3 mg/mL PTH(1-34) was separately incubated in 0.063 M PBS, 0.032 M ABS, 0.016 M ABS, 0.008 M ABS and 0.004 M ABS. Aliquots of PTH(1-34) were individually incubated at 40 °C, and the PTH(1-34) content was analyzed at 0, 6, 12, 24, 36, 48, 60 and 72 h postincubation. In addition, the impurities of PTH(1-34) in the 0.032 M ABS, 0.016 M ABS, 0.008 M ABS and 0.004 M ABS solutions were quantified by HPLC at the time points of 0, 24, 72 and 120 h postincubation at 40 °C.

[6] = Isoelectric point by capillary electrophoresis; type: physicochemical; conditions: authors' previous capillary electrophoresis (CE) analysis, no reference given
From the text: The essential point for the development of a liquid PTH(1-34) formulation was ensuring the stability of PTH(1-34). In this context, the aqueous environment was screened by utilizing MD simulations and HPLC analysis. In recent decades, MD simulations have been increasingly reported to investigate the conformational equilibria of polypeptides in solution (Colombo et al., [2002]). […] The HPLC analysis results further confirmed that PTH(1-34) had the best chemical stability in 0.008 M ABS. According to our previous capillary electrophoresis (CE) analysis, the isoelectric point (pI) of PTH(1-34) is approximately pH 7.77, indicating easy solubility and stability under acidic condition. The pH values of PBS and ABS were 7.4 and 4.0, respectively. Consequently, 0.008 M ABS had the best stability performance, most likely due to its acidic pH value and low ionic strength.

Compound: C[S+](C)[O-] [DMSO, dimethyl sulfoxide]
- HNEpC viability ([1]; 6 h, 20% DMSO positive control, vs culture medium): statistically lower

Compound: O=C(O)CC(O)(CC(=O)O)C(=O)O [citric acid]
- duration of enhanced permeation rate of FITC-PTH relative to control (HNEpC layers): 60 min
- time point of TEER reversal to the baseline level (HNEpC monolayers): 40 min
- cellular internalization of FITC-PTH (normalized to protein content) (HNEpCs; 20 μg/mL FITC-PTH with 0.005%, 0.010%, 0.015% enhancer, 30 min, fluorescence 485/518 nm, n = 8): did not exhibit an obvious promotion effect
- HNEpC viability ([1]; 6 h exposure, concentration of 0.1%): 73.03%
- HNEpC viability ([1]; 6 h exposure, concentrations of 0.01% and 0.05%, vs culture medium): comparable with that of the negative control
- observations in rats during intranasal administration (nasal septum mucosae [2]): bleeding of the nose was observed

Compound: Triton X-100
- cellular internalization of FITC-PTH (normalized to protein content) (HNEpCs; 20 μg/mL FITC-PTH with 0.1% Triton X-100, positive control): significantly promoted

- observations in rats during intranasal administration (nasal septum mucosae [3]): did not induce any observed discomfort
Compound: macrogol 15-hydroxystearate [Kolliphor® HS·15]

Compound: nafarelin
- bioavailability ([4]; in vivo): lower than 3%

Compound: parathyroid hormone (1-34) [PTH(1-34)]
- impurities of PTH(1-34) ([5]; 3 mg/mL in 0.008 M ABS compared with 0.032, 0.016 and 0.004 M ABS, 120 h, HPLC): lowest amount of impurities
- PTH(1-34) content ([5]; chemical stability, 3 mg/mL in 0.032, 0.016, 0.008 and 0.004 M ABS (pH 4.0), up to 72 h, HPLC UV 214 nm): no detectable decrease
- content of PTH(1-34) ([5]; chemical stability, 3 mg/mL in 0.063 M PBS (pH 7.4), after 72 h of incubation, HPLC UV 214 nm): 76.34%
- isoelectric point (pI) [6]: ~7.77 pH

Compound: salmon calcitonin
- bioavailability ([4]; intranasal peptide formulations devoid of permeation enhancers, ref Ozsoy et al., [2009]): lower than 3%
